Results from the Kinase Knowledgebase extract (Sharma et al. 2016).

Biological target: CDK2 (UniProt P24941)

Kd: 3.2 µM
Structure (SMILES): O=C1c2ccccc2-c2n[nH]c3cccc1c23
